Key:
BFTC 905 cells = assay: MTT assay, sensitivity to erlotinib (IC50); type: cell-based, human; settings: BFTC 905 cells harboring an NRAS mutation, 72 hours
Procedure: (§1) Embryonic kidney cell line 293, SV-40 immortalized normal human urothelial cell line (HUC1), and bladder cancer cell lines 5637, FIT-1376, J82, SCaBER, RT-4, T24, and UM-UC3 were obtained from American. Type Culture Collection (ATCC; Manassas, Va., USA). Mediums were purchased from Mediatech (Manassas, USA) and supplemented with 10% FBS (Hyclone, Logan, USA) under a 5% CO2 atmosphere at 95% relative humidity. HUC-1, T24, and 5637 cells were grown in F-12K, McCoy's 5A, and RPMI 1640 medium, respectively, and all other cells were grown Dulbecco's modified Eagle medium (DMEM). BFTC 905 and BFTC 909 cell lines were established from arsenic-exposed urothelial carcinoma subjects (9) and obtained from the German Collection of Microorganisms and Cell Cultures (Braunschweig, Germany). Re-authentification of cells was performed using PowerPlex 16 HS for short tandem repeats analysis at Genetic resource core facility, the Johns Hopkins University School of Medicine, Institute of Genetic Medicine, and all cell lines have been confirmed as authentic. To prepare in vitro arsenic model, we chronically exposed HUC1 cells to 1 μM arsenic trioxide, as described previously (10) and arsenic-exposed (As) cells and passage-matched arsenic un-exposed control (UE) cells were stock for each months until 12 months. […]
(§2) The cell proliferative and viability activity were measured using the 3-(4,5-dimethyl thiazol-2-yl)-2,5-diphenyltetrazolium bromide (MTT) Proliferation Assay Kit (ATCC; Manassas, Va., USA) according to the manufacturer's protocol. […] Spectrophotometric readings (570 nm-650 nm) were obtained on a Spectra Max 250 96-well plate reader (Molecular devices, Sunnyvale, USA). […] Cell viability was expressed as the ratio of absorbance values of the treated cells related to the untreated control cells considered as 1.0. The half maximal (50%) inhibitory concentration (IC50) value of drug was calculated by treatment with the various concentration for 72 hours using MTT assay. […]

[1] = system: arsenic exposed (As)-HUC1 cells; assay: MTT assay, sensitivity to erlotinib (IC50); type: cell-based, human; settings: 72 hours (FIG. 1H)
Procedure: as §1, §2

[2] = system: basal-type bladder cancer cell lines; assay: MTT assay, sensitivity to erlotinib (IC50); type: cell-based, human; settings: 72 hours
Procedure: as §1, §2

[3] = system: xenograft tumors that acquired resistance to erlotinib (5637 cells); assay: In vivo therapeutic efficacy in tumors with acquired resistance to erlotinib; set-up: species or system mice; settings: western blotting (FIG. 7G)
Procedure: For therapeutic efficacy, mice were randomly assigned into experimental groups (five mice per group) when tumors reached a volume of […]. For celecoxib and/or VP treatment, celecoxib (5 mg/kg) was administered via intraperitoneal (i.p.) injection once a day (17), and VP (50 mg/kg) was administered via i.p. every other day (18). EP4 antagonist ONO-AE3-208 (10 mg/kg) was administered via i.p. once a day (19). Control was applied with same volume (10 μL per injection) of 10% dimethyl sulphoxide in 1% TWEEN 80 (Sigma-Aldrich). For GEM and CDDP (GC) treatment (i.p.), CDDP (6 mg/kg) was only applied after the first GEM (60 mg/kg) treatment on day 2, followed by three consecutive treatments of GEM on day 5, 8 and 11 (17). The next cycle was started on day 18, and the treatment was continued until tumor reached 2 cm in diameter. For erlotinib treatment, the mice were treated once a day, 6 days per week, by oral gavage with erlotinib (100 mg/kg) or control (PBS containing 0.5% methyl cellulose (Sigma-Aldrich) and 0.1% TWEEN 80) (20). Tumor size was measured at least every three days. Therapeutic efficacy was assessed using percentage change after treatment related to tumor size before treatment. […]

let-7 = let-7 expression by Q-RT-PCR; type: cell-based, human; settings: parental or spheroid bladder cancer cells
Procedure: (§3) Total RNA from cell lines was isolated using the RNeasy Plus Mini kit (Qiagen, Valencia, USA) according to the manufacturer's protocol. Total RNA extraction from bladder tissue was performed with the QIAzol Lysis Reagent (Qiagen) followed by phenol extraction and ethanol precipitation. Total RNA was eluted in DEPC treated water and stored at −80 ° C. Total RNA extraction from urine was performed using the MirVana miRNA Isolation Kit (Ambion, Austin, USA). These total RNA were converted to cDNA using the SuperScript III First-Strand Synthesis System (Life technologies, Carlsbad, USA), which was then used as a template for Q-RT-PCR. Q-RT-PCR was performed using the Fast SYBR Green Master Mix (Thermo Fisher Scientific, Waltham, USA) on a 7900HT Fast Real-Time PCR System (Life technologies) in triplicate. Micro RNA (miRNA) extraction was performed using the MirVana miRNA Isolation Kit, and was reverse transcribed using TaqMan reverse transcription kit (Applied Biosystems, Foster City, USA) and miRNA-specific RT primers provided with TaqMan microRNA assays (Applied Biosystems). Q-RT-PCR for miRNAs was performed using the TaqMan Universal PCR Master Mix according to the manufacturer's protocol. SDS software (Applied Biosystems) was used to determine cycle threshold (Ct) values. Expression level was quantified relative to β-actin for mRNA and RNU6B for miRNA using the 2-ΔΔCt method (12).
For demethylation, cells (1×10^6/T-75 flask) were treated with […] of the demethylating agent 5-Aza-dC (Sigma) dissolved in 50% acetic acid or were mock-treated with phosphate buffered saline (PBS) including the same amount of acetic acid every 24 hours for 5 days. When combined with the histone deacetylase inhibitor TSA (Sigma), 300 nmol/L TSA was added to the medium for the final 24 hours.

[4] = system: panel of miRNAs in BFTC 905 cells; assay: Expression of a panel of miRNAs; type: cell-based, human; settings: COX2 inhibitor
Procedure: as §3

SMILES	sensitivity to the EGFR inhibitor erlotinib (BFTC 905 cells)	sensitivity to the EGFR inhibitor erlotinib [1]	sensitivity to the EGFR inhibitor erlotinib [2]	EGFR-MAPK signaling in xenograft tumors [3]	let-7 expression (let-7)	expression of several miRNAs [4]
C#Cc1cccc(Nc2ncnc3cc(OCCOC)c(OCCOC)cc23)c1 [erlotinib, Erlotinib]	resistance	sensitive	sensitive	remained suppressed		
Cc1ccc(-c2cc(C(F)(F)F)nn2-c2ccc(S(N)(=O)=O)cc2)cc1 [celecoxib, Celecoxib]					restoration of let-7 expression	induced expression

From patent US20220184037A1, “PHARMACEUTICAL AGENTS TARGETING CANCER STEM CELLS” (THE JOHNS HOPKINS UNIVERSITY, priority 2020, published 2022)
